Laboratory results published in patent US10286079B2, “Modified cytotoxins and their therapeutic use” (The Regents of the University of California, priority 2015, dated 2019).

Experiments:
HSA = HSA (Homo sapiens, UniProt P02768); experiment: in vitro; assay type: in vitro ADME; settings: HSA (human serum albumin), read-out: % bound to protein (converted); for fraction unbound at 1.5 μM: concentration 1.5 μM; for fraction unbound at 3 μM: concentration 3.0 μM
Procedure: Using a dialysis-based protein binding assay according to the method described in Cohen, Plasma Protein-Binding Methods in Drug Discovery in OPTIMIZATION IN DRUG DISCOVERY: IN VITRO METHODS, Yan & Caldwell, eds., pp. 111-122 (Humana Press, Totowa, N.J., 2004), which is hereby incorporated by reference as though set forth herein in its entirety. The percentage of PTX-FA18 and the percentage of octadecanedioic acid (C18 Diacid) bound to the protein at different concentrations was measured.

HeLa cells = experiment: In vitro cytotoxicity, CellTiter Blue cell viability; assay type: cell-based; settings: 3 days
Procedure: HeLa cells were obtained from ATCC and incubated at 37° C. at 5% CO2 using DMEM supplemented with 10% FBS, and 1× of sodium pyruvate, non-essential amino acids, L-glutamine and antibiotics.
Cytotoxicity of compounds was evaluated using the CellTiter Blue assay (Promega). HeLa cells were plated in 96-well plates, at a density of 3000 cells/well 1 day before treatment. Treatments were prepared as 1000× serial stock dilutions in DMSO, then diluted into media for 1×, 0.1% DMSO treatment solutions. Plating media was removed, then treatments were added to the wells. After 3 days, the media was removed and replaced with 100 uL complete DMEM without phenol red. Then 20 uL of CellTiter Blue reagent was added, and the plates incubated for two hours at 37° C. Fluorescence was measured at 590 nm with excitation at 560 nm. To determine viability, average background fluorescence was subtracted from average fluorescence readings of the experimental wells (three wells per treatment concentration). Viability was calculated as the average background-subtracted signal in a well compared to that of a negative control well (treatment with 0.1% DMSO/media).
Viabilities were fit in GraphPad Prism using a non-linear, dose-dependent inhibition curve. The IC50 numbers given in the table reflect the concentration at which the cell death is 50% of the maximum response.

[1] = Homo sapiens, 72 h, average of at least 3 replicates

Sequence of HSA (P02768 25-609): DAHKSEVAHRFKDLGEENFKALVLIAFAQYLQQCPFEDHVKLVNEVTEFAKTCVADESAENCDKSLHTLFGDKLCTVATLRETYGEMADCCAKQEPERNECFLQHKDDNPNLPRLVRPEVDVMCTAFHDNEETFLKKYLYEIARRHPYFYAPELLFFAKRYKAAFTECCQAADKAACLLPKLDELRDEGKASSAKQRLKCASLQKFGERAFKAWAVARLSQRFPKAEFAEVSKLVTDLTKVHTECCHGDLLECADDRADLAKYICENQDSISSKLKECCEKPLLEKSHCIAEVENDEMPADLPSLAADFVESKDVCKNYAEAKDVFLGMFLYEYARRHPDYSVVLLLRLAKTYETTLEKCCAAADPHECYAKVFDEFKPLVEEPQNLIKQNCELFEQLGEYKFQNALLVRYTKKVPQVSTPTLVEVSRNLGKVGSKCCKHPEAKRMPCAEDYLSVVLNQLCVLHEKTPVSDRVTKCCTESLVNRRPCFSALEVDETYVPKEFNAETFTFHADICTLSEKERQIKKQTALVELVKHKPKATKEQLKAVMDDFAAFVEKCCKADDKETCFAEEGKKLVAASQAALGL

**Q.** What does the source list for `O=C(O)CCCCCCCCCCCCCCCCC(=O)O` [C18 Diacid, octadecanedioic acid]?
**A.** fraction unbound at 1.5 μM (HSA): 0.009; fraction unbound at 3 μM (HSA): 0.002; fraction unbound at 20 μM (HSA; concentration 20.0 μM): 0.026

**Q.** With `CC[C@@]1(OC(=O)CCCCCCCCCCCCCCCCC(=O)O)C(=O)OCc2c1cc1n(c2=O)Cc2cc3ccccc3nc2-1` [CPT-FA18, Camptothecin-C18 Diacid Conjugate] as the compound, how does the IC50 (HeLa cells; [1]) read?
**A.** 11000 nM

**Q.** Which IC50 (HeLa cells; [1]) does the source give for `CC(=O)O[C@H]1C(=O)[C@@]2(C)[C@H]([C@H](OC(=O)c3ccccc3)[C@]3(O)C[C@H](OC(=O)[C@H](OC(=O)CCCCCCCCCCCCCCC(=O)O)[C@@H](NC(=O)c4ccccc4)c4ccccc4)C(C)=C1C3(C)C)[C@]1(OC(C)=O)CO[C@@H]1C[C@@H]2O` [PTX-FA16, Paclitaxel-C16 Diacid Conjugate] here?
**A.** 137 nM

**Q.** `CC(=O)O[C@H]1C(=O)[C@@]2(C)[C@H]([C@H](OC(=O)c3ccccc3)[C@]3(O)C[C@H](OC(=O)[C@H](OC(=O)CCCCCCCCCCCCCCCCC(=O)O)[C@@H](NC(=O)c4ccccc4)c4ccccc4)C(C)=C1C3(C)C)[C@]1(OC(C)=O)CO[C@@H]1C[C@@H]2O` [PTX-FA18, Paclitaxel-C18 Diacid Conjugate] was tested. Which fraction unbound at 1.5 μM (HSA) did it give?
**A.** 0.005

**Q.** And the fraction unbound at 3 μM (HSA)?
**A.** 0.003

**Q.** And the IC50 (HeLa cells; [1])?
**A.** 64.4 nM

**Q.** For `CC(=O)O[C@H]1C(=O)[C@@]2(C)[C@H]([C@H](OC(=O)c3ccccc3)[C@]3(O)C[C@H](OC(=O)[C@H](OC(=O)CCCCCCCCCCCCCCCCCCC(=O)O)[C@@H](NC(=O)c4ccccc4)c4ccccc4)C(C)=C1C3(C)C)[C@]1(OC(C)=O)CO[C@@H]1C[C@@H]2O` [PTX-FA20, Paclitaxel-C20 Diacid Conjugate], which IC50 (HeLa cells; [1]) is on record?
**A.** 27.8 nM

**Q.** Which IC50 (HeLa cells; Homo sapiens, 72 h, one experiment (*)) does the source give for `COC(=O)CCCCCCCCCCCCCCCCC(=O)NCCCCCC(=O)O[C@@H](C(=O)O[C@H]1C[C@@]2(O)[C@@H](OC(=O)c3ccccc3)[C@@H]3[C@]4(OC(C)=O)CO[C@@H]4C[C@H](O)[C@@]3(C)C(=O)[C@H](OC(C)=O)C(=C1C)C2(C)C)[C@@H](NC(=O)c1ccccc1)c1ccccc1` [PTX-FAE18-Aa, Paclitaxel-C18 Diacid Conjugate+Amino Acid Spacer] here?
**A.** 2330 nM

**Q.** How did the IC50 (HeLa cells; [1]) turn out when `CC(=O)O[C@H]1C(=O)[C@@]2(C)[C@H]([C@H](OC(=O)c3ccccc3)[C@]3(O)C[C@H](OC(=O)[C@H](OC(=O)CCCCCCC/C=C/CCCCCCCC(=O)O)[C@@H](NC(=O)c4ccccc4)c4ccccc4)C(C)=C1C3(C)C)[C@]1(OC(C)=O)CO[C@@H]1C[C@@H]2O` [PTX-FAu18, Paclitaxel-uC18 Diacid Conjugate] was run?
**A.** 40.1 nM

**Q.** How did the IC50 (HeLa cells; average of at least 3 replicates) turn out when “Methotrexate-C18 Diacid Conjugate [MTX-FA18]” was run?
**A.** 3010 nM
